From US20250230462A1, “PPO2 POLYPEPTIDE HAVING TOLERANCE TO PPO INHIBITOR HERBICIDE AND APPLICATION” (priority 2022, published 2025)

Legend:
[1] = test system: rice seedlings edited at the OsPPO2 L422M/F442M site and wild-type strain; test: Tolerance of gene-edited homozygous OsPPO2 L422M/F442M rice seedlings (4-leaf stage)
[2] = test system: Arabidopsis thaliana overexpressing rice OsPPO2 WT or L422M/F442M; test: Resistance test of Arabidopsis thaliana seeds overexpressing rice OsPPO2 on MS media containing PPO inhibitor herbicides; format: in vivo; details: for tolerance of L422M/F442M overexpression relative to overexpression of the wild type PPO2: FIGS. 4-6, different concentrations; for resistance of plants at higher application concentrations: 2 μM, 1 μM and 1 μM (compound A, flumioxazin, saflufenacil respectively); for tolerance/resistance of plants compared with wild-type Arabidopsis thaliana: plants overexpressing OsPPO2 L422M/F442M and OsPPO2 WT, levels similar at 50 nM, 10 nM and 40 nM (compound A, flumioxazin, saflufenacil respectively)
Procedure: In order to rapidly verify the tolerance of rice OsPPO2 L422M/F442M mutants to different compounds, vectors for overexpressing wild-type and mutant rice PPO2 genes were constructed by conventional methods and overexpressed in Arabidopsis thaliana.
The obtained Arabidopsis thaliana seeds overexpressing rice OsPPO2 mutants and wild types were tested for resistance on MS media (petri dishes) that contained PPO inhibitor herbicidal compounds of various concentrations.

[3] = overexpressing OsPPO2 L422M/F442M

Cc1nn(-c2cc(NS(C)(=O)=O)c(Cl)cc2Cl)c(=O)n1C(F)F [sulfentrazone]
crop safety when other PPO inhibiting herbicides were applied [1]: excellent crop safety

CS(=O)(=O)NC(=O)c1cc(Oc2ccc(C(F)(F)F)cc2Cl)ccc1[N+](=O)[O-] [fomesafen]
crop safety when other PPO inhibiting herbicides were applied [1]: excellent crop safety

COC(=O)CCNC(=O)C(C)Sc1cc(-n2c(=O)cc(C(F)(F)F)n(C)c2=O)c(F)cc1Cl (stereo not shown) [tiafenacil]
crop safety when other PPO inhibiting herbicides were applied [1]: excellent crop safety

C#CCN(C)c1c(C#N)cnn1-c1nn2c(c1Cl)CCCC2 [pyraclonil]
crop safety when other PPO inhibiting herbicides were applied [1]: excellent crop safety

Cc1nn(-c2cc(CC(Cl)C(=O)O)c(Cl)cc2F)c(=O)n1C(F)F (stereo not shown) [carfentrazone]
crop safety when other PPO inhibiting herbicides were applied [1]: excellent crop safety

C#CCN1C(=O)C(F)(F)Oc2cc(F)c(-n3c(=O)n(C)c(=S)n(C)c3=O)cc21 [trifludimoxazin]
crop safety when other PPO inhibiting herbicides were applied [1]: excellent crop safety

CCOc1cc(Oc2ccc(C(F)(F)F)cc2Cl)ccc1[N+](=O)[O-] [oxyfluorfen]
crop safety when other PPO inhibiting herbicides were applied [1]: excellent crop safety

CC(C)N(C)S(=O)(=O)NC(=O)c1cc(-n2c(=O)cc(C(F)(F)F)n(C)c2=O)c(F)cc1Cl [saflufenacil]
tolerance of L422M/F442M overexpression relative to overexpression of the wild type PPO2 [2]: stronger tolerance
resistance of plants at higher application concentrations [2, 3]: still exhibited resistance
resistance of plants at higher application concentrations ([2]; overexpressing OsPPO2 WT): no difference from the wild-type Arabidopsis thaliana controls
tolerance/resistance of plants compared with wild-type Arabidopsis thaliana [2]: certain tolerance/resistance
crop safety when other PPO inhibiting herbicides were applied [1]: excellent crop safety

C#CCN1C(=O)COc2cc(F)c(N3C(=O)C4=C(CCCC4)C3=O)cc21 [flumioxazin]
tolerance of L422M/F442M overexpression relative to overexpression of the wild type PPO2 [2]: stronger tolerance
resistance of plants at higher application concentrations [2, 3]: still exhibited resistance
resistance of plants at higher application concentrations ([2]; overexpressing OsPPO2 WT): no difference from the wild-type Arabidopsis thaliana controls
tolerance/resistance of plants compared with wild-type Arabidopsis thaliana [2]: certain tolerance/resistance
crop safety when other PPO inhibiting herbicides were applied [1]: excellent crop safety

CCOC(=O)COc1ncccc1Oc1cc(-n2c(=O)cc(C(F)(F)F)n(C)c2=O)c(F)cc1Cl [Epyrifenacil, [3-[2-chloro-4-fluoro-5-(1-methyl-6-trifluoromethyl-2,4-dioxo-1,2,3,4-tetrahydropyrimidin-3-yl)phenoxy]-2-pyridyloxy] ethyl acetate]
crop safety when other PPO inhibiting herbicides were applied [1]: excellent crop safety

CCOC(=O)C1(C)CC(c2cc(-n3c(=O)cc(C(F)(F)F)n(C)c3=O)c(F)cc2Cl)=NO1 (stereo not shown)
crop safety when other PPO inhibiting herbicides were applied [1]: excellent crop safety
